Data on 7 compounds can be found in paper PMC11774580 (Chemosphere, 2024).

Molecules are shown by their SMILES. Where two headings read alike, the source gives them in different places.

For series [1], the target named is T1, human OAT3 (Homo sapiens, UniProt Q8TCC7).
T1 sequence (Q8TCC7 1-542): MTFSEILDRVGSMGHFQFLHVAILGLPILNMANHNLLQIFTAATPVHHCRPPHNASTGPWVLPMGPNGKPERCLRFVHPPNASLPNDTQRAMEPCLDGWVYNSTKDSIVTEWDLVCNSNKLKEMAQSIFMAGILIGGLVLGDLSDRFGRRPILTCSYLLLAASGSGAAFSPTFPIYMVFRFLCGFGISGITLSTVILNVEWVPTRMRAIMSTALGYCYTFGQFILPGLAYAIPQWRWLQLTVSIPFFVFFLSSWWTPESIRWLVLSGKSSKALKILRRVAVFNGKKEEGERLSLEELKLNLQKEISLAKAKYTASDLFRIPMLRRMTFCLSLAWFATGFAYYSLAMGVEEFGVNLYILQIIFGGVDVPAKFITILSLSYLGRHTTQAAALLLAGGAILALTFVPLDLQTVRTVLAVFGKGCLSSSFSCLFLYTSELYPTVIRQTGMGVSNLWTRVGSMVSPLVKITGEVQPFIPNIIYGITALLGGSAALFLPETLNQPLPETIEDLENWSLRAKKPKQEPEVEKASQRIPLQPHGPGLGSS
Kind of series: OAT3 inhibition assay.

Series [2] addresses T1, human OAT3. Kind of series: hOAT3 substrate. The following applies: for Transporter Uptake Ratio OAT3: 1 μM PFAS, threshold ≥ 2-fold; for hOAT3-mediated uptake, fold: follow-up test, without probenecid; for Effect of probenecid cotreatment on hOAT3-mediated uptake: probenecid 1 mM.
The target in a further series is T2, human OAT4 (Homo sapiens, UniProt Q9NSA0).
T2 sequence (Q9NSA0 1-550): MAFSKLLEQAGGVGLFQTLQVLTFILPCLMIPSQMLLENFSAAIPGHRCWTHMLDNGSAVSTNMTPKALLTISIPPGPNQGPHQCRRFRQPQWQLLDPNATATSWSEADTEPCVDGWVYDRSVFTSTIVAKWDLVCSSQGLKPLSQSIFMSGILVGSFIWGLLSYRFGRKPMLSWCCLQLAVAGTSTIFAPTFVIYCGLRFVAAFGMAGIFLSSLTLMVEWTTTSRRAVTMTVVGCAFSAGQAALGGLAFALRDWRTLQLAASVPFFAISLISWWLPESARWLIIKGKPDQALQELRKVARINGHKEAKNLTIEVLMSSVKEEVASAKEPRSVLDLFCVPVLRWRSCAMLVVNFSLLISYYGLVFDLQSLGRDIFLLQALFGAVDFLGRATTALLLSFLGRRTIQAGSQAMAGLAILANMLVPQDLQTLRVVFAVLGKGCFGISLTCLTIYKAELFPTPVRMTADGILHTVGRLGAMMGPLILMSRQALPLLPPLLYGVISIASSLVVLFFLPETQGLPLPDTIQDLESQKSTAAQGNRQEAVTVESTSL
Kind of series: hOAT4 substrate. The following applies: for Transporter Uptake Ratio OAT4: 1 μM PFAS, threshold ≥ 2-fold; for Effect of probenecid co-treatment on hOAT4-mediated uptake: probenecid 1 mM. The class given is in vitro ADME.

For series [3], the target named is T3, human OAT1 (Homo sapiens, UniProt Q4U2R8).
T3 sequence (Q4U2R8 1-563): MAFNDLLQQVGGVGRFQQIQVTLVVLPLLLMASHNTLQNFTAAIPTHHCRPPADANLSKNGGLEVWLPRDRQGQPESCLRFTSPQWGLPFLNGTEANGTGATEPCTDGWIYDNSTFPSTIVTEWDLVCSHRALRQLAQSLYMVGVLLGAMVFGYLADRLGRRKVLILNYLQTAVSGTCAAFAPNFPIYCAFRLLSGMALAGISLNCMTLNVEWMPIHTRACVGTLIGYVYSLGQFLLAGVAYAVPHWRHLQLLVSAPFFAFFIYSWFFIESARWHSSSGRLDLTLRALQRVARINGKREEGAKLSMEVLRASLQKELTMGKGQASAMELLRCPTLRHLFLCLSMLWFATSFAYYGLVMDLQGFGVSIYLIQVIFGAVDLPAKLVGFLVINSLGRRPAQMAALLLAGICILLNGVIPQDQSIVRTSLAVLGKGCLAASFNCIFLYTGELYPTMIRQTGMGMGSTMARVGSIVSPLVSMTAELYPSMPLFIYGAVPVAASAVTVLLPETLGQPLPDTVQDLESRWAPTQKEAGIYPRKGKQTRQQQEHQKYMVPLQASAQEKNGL
Kind of series: OAT1 inhibition assay.

For another series, the target named is T4, human OCT2 (Homo sapiens, UniProt O15244).
T4 sequence (O15244 1-555): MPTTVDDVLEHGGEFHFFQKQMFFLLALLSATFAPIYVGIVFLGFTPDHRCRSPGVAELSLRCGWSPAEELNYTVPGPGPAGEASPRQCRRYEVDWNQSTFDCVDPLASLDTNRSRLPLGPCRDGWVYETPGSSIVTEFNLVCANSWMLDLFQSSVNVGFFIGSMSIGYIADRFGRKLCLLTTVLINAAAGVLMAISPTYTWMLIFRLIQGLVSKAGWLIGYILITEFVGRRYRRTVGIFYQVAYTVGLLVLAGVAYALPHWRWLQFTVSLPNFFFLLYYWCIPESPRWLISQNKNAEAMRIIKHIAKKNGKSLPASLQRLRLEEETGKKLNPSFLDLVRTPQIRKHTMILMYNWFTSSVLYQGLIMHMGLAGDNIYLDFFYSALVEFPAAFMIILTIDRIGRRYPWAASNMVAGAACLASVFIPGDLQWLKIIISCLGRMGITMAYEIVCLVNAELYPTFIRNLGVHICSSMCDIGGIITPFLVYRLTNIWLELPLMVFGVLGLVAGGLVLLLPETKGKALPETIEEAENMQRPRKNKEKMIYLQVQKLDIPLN
Kind of series: hOCT2 substrate. Format: in vitro ADME. The conditions noted are these: 1 μM PFAS screen.

For series [4], the system named is MDCKII-LE cell monolayers. Put plainly: Apparent permeability. The following applies: donor pH 7.4, receiver pH 7.4; 2 μM PFAS; 90 min; 0.4% BSA in receiver.
The target of series [5] is T3, human OAT1. Kind of series: hOAT1 substrate. The following applies: for hOAT1 uptake ratio, % higher than controls: 1 μM PFAS screen.
The conditions of series [6]: PFHpA versus PFUDA; ref Zhang et al. (2013); cited from earlier work.
The mark [7] stands for this setting: read-out: IC50 hOAT3 inhibition, probe [3H]-ES 0.1 μM, 30 min pre-incubation.

By IC50 is commonly meant the concentration that gives 50% inhibition.

Regarding `O=S(=O)(O)C(F)(F)C(F)(F)C(F)(F)C(F)(F)C(F)(F)C(F)(F)F` [PFHxS, perfluorohexane sulfonic acid], it took 10.3 µM to reach half-maximal inhibition against human OAT3 [1] (IC50). The “hOAT3 uptake ratio, fold higher than mock transfected controls” value at human OAT3 [2] (1 μM PFAS screen) is on record as 2.5–12 fold. For the same compound, on human OAT3 [2], the “Transporter Uptake Ratio OAT3” value was “+ (denoted with a “+” to denote a threshold of ≥ 2-fold has been met and considered a substrate for the transporter)”; the “hOAT3-mediated uptake, fold” value is recorded as 2.5–15 fold; the “Effect of probenecid cotreatment on hOAT3-mediated uptake” value (from here on “Effect of probenecid cotreatment”) is reported as “markedly inhibited”. On human OAT4, the “OAT4 substrate classification” value was “strong substrates”; the “Transporter Uptake Ratio OAT4” value is “+ (denoted with a “+” to denote a threshold of ≥ 2-fold has been met and considered a substrate for the transporter)”; the “Effect of probenecid co-treatment on hOAT4-mediated uptake” value (“Effect of probenecid co-treatment” for short) is reported as “not inhibited”. Also, the “hOAT4 uptake ratio, fold” value at human OAT4 (1 μM PFAS screen) is “greater than 2 fold”. The “Fold difference in OAT4 uptake ratio between PFHxS and PFOS” value on human OAT4 (PFHxS versus PFOS) is given as ~ 2.5 fold.

As to `O=C(O)C(F)(F)C(F)(F)C(F)(F)C(F)(F)C(F)(F)C(F)(F)C(F)(F)C(F)(F)C(F)(F)C(F)(F)C(F)(F)F` [PFDoDA, perfluorododecanoic acid], the “Some level of inhibition against hOAT3 mediated transport” value on human OAT3 [1] is listed as “the only exceptions”. In addition, the “Some level of inhibition against hOAT1 mediated transport” value on human OAT1 [3] is reported as “the only exceptions”. On human OCT2, the “hOCT2 uptake ratio, % higher than mock transfectant controls” value was ~ 10%.

Consider `O=C(O)C(F)(F)C(F)(F)C(F)(F)F` [PFBA, Perfluorobutanoic acid], for which the “Some level of inhibition against hOAT3 mediated transport” value on human OAT3 [1] is given as “the only exceptions”. The “hOAT3 substrate classification” value on human OAT3 [2] was “weak substrate”. Also, at human OAT3 [2] (1 μM PFAS screen), the “hOAT3 uptake ratio, % higher than mock transfectants” value is listed as 30–50%. Moreover, the hOAT3 uptake ratio on human OAT3 [2] (statistically significant, below 2-fold cut-off) stood at 1.5. Also, the “Some level of inhibition against hOAT1 mediated transport” value at human OAT1 [3] is “the only exceptions”. For the same compound, the “Ph 7.4 A-B Papp” value in series [4] was 0.93 ×10⁻⁶ cm/s.

For the compound `O=C(O)C(F)(F)C(F)(F)C(F)(F)C(F)(F)C(F)(F)C(F)(F)C(F)(F)C(F)(F)F` [PFNA, perfluorononanoic acid], on human OAT3 [1] (setting [7]), the concentration for half-maximal inhibition (IC50) stood at 9.8 µM. The “hOAT3 uptake ratio, fold higher than mock transfected controls” value at human OAT3 [2] (1 μM PFAS screen) is 2.5–12 fold. On human OAT3 [2], the “Transporter Uptake Ratio OAT3” value is “+ (denoted with a “+” to denote a threshold of ≥ 2-fold has been met and considered a substrate for the transporter)”; the “hOAT3-mediated uptake, fold” value is reported as 2.5–15 fold; the “Effect of probenecid cotreatment” value was “markedly inhibited”. Further, on human OAT4, the “OAT4 substrate classification” value was “strong substrates”; the “Transporter Uptake Ratio OAT4” value is “+ (denoted with a “+” to denote a threshold of ≥ 2-fold has been met and considered a substrate for the transporter)”; the “Effect of probenecid co-treatment” value is given as “effectively inhibited”. Moreover, the “hOAT4 uptake ratio, fold” value on human OAT4 (1 μM PFAS screen) is reported as “greater than 2 fold”. Moreover, the “Ph 7.4 A-B Papp” value in series [4] was determined as 3.77 ×10⁻⁶ cm/s.

`O=S(=O)(O)CCC(F)(F)C(F)(F)C(F)(F)C(F)(F)C(F)(F)C(F)(F)F` [6:2FTS, 6:2 fluorotelomer sulfonate]: the half-inhibitory concentration (IC50) at human OAT3 [1] (setting [7]) was determined as 11.3 µM. The “hOAT3 uptake ratio, fold higher than mock transfected controls” value on human OAT3 [2] (1 μM PFAS screen) is on record as 2.5–12 fold. Moreover, on human OAT3 [2], the “Transporter Uptake Ratio OAT3” value was “+ (denoted with a “+” to denote a threshold of ≥ 2-fold has been met and considered a substrate for the transporter)”; the “hOAT3-mediated uptake, fold” value is given as 2.5–15 fold. Also, the “hOAT4 uptake ratio, fold” value at human OAT4 (1 μM PFAS screen) is “greater than 2 fold”. Besides, on human OAT4, the “Transporter Uptake Ratio OAT4” value was “+ (denoted with a “+” to denote a threshold of ≥ 2-fold has been met and considered a substrate for the transporter)”. For the same compound, in series [4], the “Ph 7.4 A-B Papp” value was 0.71 ×10⁻⁶ cm/s. Besides, the “Transporter Uptake Ratio OAT1” value on human OAT1 [5] (1 μM PFAS, threshold ≥ 2-fold) is “+ (denoted with a “+” to denote a threshold of ≥ 2-fold has been met and considered a substrate for the transporter)”. Besides, the “hOAT-mediated uptake (Fig. 3A, OAT1), fold” value on human OAT1 [5] (follow-up test, without probenecid) was ~ 4 fold.

At human OAT3 [1], `O=C(O)C(F)(F)C(F)(F)C(F)(F)C(F)(F)C(F)(F)C(F)(F)F` [PFHpA, perfluoroheptanoic acid] had an IC50 of 10.2 µM. In addition, the “hOAT3 uptake ratio, fold higher than mock transfected controls” value on human OAT3 [2] (1 μM PFAS screen) was 2.5–12 fold. On human OAT3 [2], the “Transporter Uptake Ratio OAT3” value was “+ (denoted with a “+” to denote a threshold of ≥ 2-fold has been met and considered a substrate for the transporter)”; the “hOAT3-mediated uptake, fold” value is 2.5–15 fold; the “Effect of probenecid cotreatment” value is “markedly inhibited”. For the same compound, the concentration for half-maximal inhibition (IC50) against human OAT1 [3] was 51.4 to 166 µM. The “human renal clearance rate, fold higher than PFUDA” value in series [6] is listed as ~ 10 fold. Besides, at human OAT4, the “OAT4 substrate classification” value is “strong substrates”; the “Transporter Uptake Ratio OAT4” value was “+ (denoted with a “+” to denote a threshold of ≥ 2-fold has been met and considered a substrate for the transporter)”; the “Effect of probenecid co-treatment” value is on record as “effectively inhibited”. The “hOAT4 uptake ratio, % above controls” value at human OAT4 (1 μM PFAS screen) is reported as ~ 20%. Further, the “hOAT1 uptake ratio, % higher than controls” value on human OAT1 [5] was 5–60%.

As for `O=C(O)C(F)(F)C(F)(F)C(F)(F)C(F)(F)C(F)(F)C(F)(F)C(F)(F)F` [PFOA, perfluorooctanoic acid], the IC50 against human OAT3 [1] came to 8.9 µM. On human OAT3 [2] (1 μM PFAS screen), the “hOAT3 uptake ratio, fold higher than mock transfected controls” value is 2.5–12 fold. For the same compound, on human OAT3 [2], the “Transporter Uptake Ratio OAT3” value was “+ (denoted with a “+” to denote a threshold of ≥ 2-fold has been met and considered a substrate for the transporter)”; the “hOAT3-mediated uptake, fold” value is on record as 2.5–15 fold; the “Effect of probenecid cotreatment” value is given as “markedly inhibited”. For the same compound, at human OAT1 [3], the IC50 lay in the range of 51.4 to 166 µM. For the same compound, on human OAT4, the “OAT4 substrate classification” value is given as “strong substrates”; the “Transporter Uptake Ratio OAT4” value is “+ (denoted with a “+” to denote a threshold of ≥ 2-fold has been met and considered a substrate for the transporter)”; the “Effect of probenecid co-treatment” value is “effectively inhibited”. Moreover, the “hOAT4 uptake ratio, fold” value at human OAT4 (1 μM PFAS screen) was “greater than 2 fold”. Further, the “Ph 7.4 A-B Papp” value in series [4] stood at 1.46 ×10⁻⁶ cm/s. The “hOAT1 uptake ratio, % higher than controls” value on human OAT1 [5] is on record as 5–60%.
